The record followed here is US11130769B2 (Prelude Therapeutics Incorporated, priority 2018, dated 2021).

Where “and” joins values, the source holds several entries; their conditions need not be identical. Identical values can stand only once. Like-named read-outs stand apart in the source and are kept apart here.

Data set [1] addresses MCL-1 (Homo sapiens (Human), UniProt Q07820). As to the kind of experiment: Cell free Mcl-1:Bim affinity assay (fluorescence polarization competition). The data set is classed as binding. The settings on record: 15 nM MCL-1, 5 nM FITC-Bim, 1 hour at room temperature; class symbols; read-out: BIM_Ki. Summed up: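 Compounds competed with FITC-labelled Bim peptide (5 nM) for MCL-1 (15 nM) in HEPES/NaCl buffer with 1% DMSO, 1 h at room temperature. Fluorescence polarization (535 nm emission) gave % inhibition versus DMSO and positive controls; IC50 from 10-point curves, converted to Ki by the Nikolovska-Coleska equation.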

In data set [2] the test system is H929 cells. In words: Cell viability assay (H929 10 FBS). The data set is classed as cell-based. The conditions noted are these: Homo sapiens, NCI-H929, 24 hours, read-out: H929_10FBS IC50. Summed up:
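H929 cells, 4000/well, in RPMI 1640 with 10% FBS, sodium pyruvate, HEPES and glucose were exposed to compound 24 h at 37 °C. Viability read as luminescence after 30-60 min at RT with CellTiter-Glo or ATPlite 1 Step.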

Experiment in data set [3]: not given
This is another data set of the same source.

MCL-1, sequence (Q07820 whole entry): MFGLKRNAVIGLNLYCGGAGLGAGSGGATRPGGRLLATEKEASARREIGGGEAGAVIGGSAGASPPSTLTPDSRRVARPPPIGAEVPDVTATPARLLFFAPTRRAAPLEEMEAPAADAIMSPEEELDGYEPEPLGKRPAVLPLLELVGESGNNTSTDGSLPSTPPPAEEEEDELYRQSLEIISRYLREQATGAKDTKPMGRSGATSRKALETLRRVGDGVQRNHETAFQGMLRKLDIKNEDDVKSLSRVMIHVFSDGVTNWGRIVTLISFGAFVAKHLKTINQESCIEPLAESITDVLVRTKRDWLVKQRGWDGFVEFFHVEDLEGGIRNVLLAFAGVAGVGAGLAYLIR

For orientation: IC50 means the concentration needed to halve the response being measured. For the compound `C[C@H]1C(=O)NS(=O)(=O)c2ccc3c(c2)N(C[C@@H]2CC[C@H]2COCC(=O)N1C)C[C@@]1(CCCc2cc(Cl)ccc21)CO3` [Example 196, (3R,6R,12S,22S)-6′-Chloro-11,12-dimethyl-15,15-dioxo-spiro[8,20-dioxa-15-thia-1,11,14-triazatetracyclo[14.7.2.03,6.019,24]pentacosa-16,18,24-triene-22,1′-tetralin]-10,13-dione], the Ki in data set [1] was 1 to 100 nM. For the same compound, in data set [2], the IC50 was more than 1000 nM. Moreover, the ring closure, yield after HPLC (from CN[C@@H](C)C(=O)NS(=O)(=O)c1ccc2c(c1)N(C[C@@H]1CC[C@H]1COCC(=O)O)C[C@@]1(CCCc3cc(Cl)ccc31)CO2, amide bond, 16-membered ring, HATU/DIEA, DMF, 20.0 mM, 20.0 °C, 1.0 h) worked out at 24.6%.
On to `CO[C@@H]1/C=C/CCNC(=O)NS(=O)(=O)c2ccc3c(c2)N(C[C@@H]2CC[C@H]21)C[C@@]1(CCCc2cc(Cl)ccc21)CO3` [Example 106, (3R,6R,7R,8E,22S)-6′-Chloro-7-methoxy-15,15-dioxo-spiro[20-oxa-15-thia-1,12,14-triazatetracyclo[14.7.2.03,6.019,24]pentacosa-8,16,18,24-tetraene-22,1′-tetralin]-13-one], for which the Ki in data set [1] was 1 to 100 nM. Besides, the IC50 in data set [2] was less than 1000 nM. For the same compound, the ring closure, yield after HPLC (from C=CCCNC(=O)NS(=O)(=O)c1ccc2c(c1)N(C[C@@H]1CC[C@H]1[C@@H](C=C)OC)C[C@@]1(CCCc3cc(Cl)ccc31)CO2, rcm bond, 16-membered ring, Hoveyda-Grubbs II, DCE, 1.5 mM, 80.0 °C, 16.0 h) stood at 43%.
In the case of `O=C1Cc2cncc(c2)OC[C@@H]2CC[C@H]2CN2C[C@@]3(CCCc4cc(Cl)ccc43)COc3ccc(cc32)S(=O)(=O)N1` [Example 104, (3R,6R,24S)-6′-Chloro-17,17-dioxo-spiro[8,22-dioxa-17-thia-1,11,16-triazapentacyclo[16.7.2.19,13.03,6.021,26]octacosa-9(28),10,12,18(27),19,21(26)-hexaene-24,1′-tetralin]-15-one], the Ki in data set [1] was less than 1 nM. Further, the IC50 in data set [2] was more than 1000 nM. For the same compound, in data set [3] (from NS(=O)(=O)c1ccc2c(c1)N(C[C@@H]1CC[C@H]1COc1cncc(CC(=O)O)c1)C[C@@]1(CCCc3cc(Cl)ccc31)CO2, amide bond, 16-membered ring, EDCI/DMAP, DCM/DMF 9:1, 12.0 mM, 16.0 h), the ring closure, isolated yield was 28%.
On to `O=C1CC/C=C/COC[C@@H]2CC[C@H]2CN2C[C@@]3(CCCc4cc(Cl)ccc43)COc3ccc(cc32)S(=O)(=O)N1` [Example 99, (3R,6R,10E,23S)-6′-Chloro-16,16-dioxo-spiro[8,21-dioxa-16-thia-1,15-diazatetracyclo[15.7.2.03,6.020,25]hexacosa-10,17(26),18,20(25)-tetraene-23,1′-tetralin]-14-one], for which, in data set [1], the Ki lay in the range of 1 to 100 nM. The IC50 in data set [2] was more than 1000 nM. In data set [3] (from C=CCCC(=O)NS(=O)(=O)c1ccc2c(c1)N(C[C@@H]1CC[C@H]1COCC=C)C[C@@]1(CCCc3cc(Cl)ccc31)CO2, rcm bond, 17-membered ring, Hoveyda-Grubbs II, DCM, 16.7 mM, 24.0 h), this compound displayed a ring closure, isolated yield of 51%.
In the case of `COC(=O)N[C@@H]1/C=C/COC(C)(C)C(=O)NS(=O)(=O)c2ccc3c(c2)N(C[C@@H]2CC[C@H]21)C[C@@]1(CCCc2cc(Cl)ccc21)CO3` [Example 251, Methyl N-[(3R,6R,7R,8E,22S)-6′-Chloro-12,12-dimethyl-13,15,15-trioxo-spiro[11,20-dioxa-15-thia-1,14-diazatetracyclo[14.7.2.03,6.019,24]pentacosa-8,16(25),17,19(24)-tetraene-22,1′-tetralin]-7-yl]carbamate], the Ki in data set [1] was in the range of 1 to 100 nM. In data set [2], the IC50 was more than 1000 nM. Moreover, the ring closure, yield after HPLC (from C=CCOC(C)(C)C(=O)NS(=O)(=O)c1ccc2c(c1)N(C[C@@H]1CC[C@H]1[C@@H](C=C)NC(=O)OC)C[C@@]1(CCCc3cc(Cl)ccc31)CO2, rcm bond, 16-membered ring, Hoveyda-Grubbs II, DCE, 1.17 mM, 40.0 °C) worked out at 18.4%.
Turning to `CN1CCOC(C)(C)C(=O)NS(=O)(=O)c2ccc3c(c2)N(C[C@@H]2CC[C@H]2C1=O)C[C@@]1(CCCc2cc(Cl)ccc21)CO3` [Example 110, (3R,6R,22S)-6′-Chloro-8,12,12-trimethyl-15,15-dioxo-spiro[11,20-dioxa-thia-1,8,14-triazatetracyclo[14.7.2.03,6.019,24]pentacosa-16(25),17,19(24)-triene-22,1′-tetralin]-7,13-dione], the Ki in data set [1] fell in the range of 1 to 100 nM. In data set [2], the IC50 is more than 1000 nM. Moreover, where the note is “from CNCCOC(C)(C)C(=O)NS(=O)(=O)c1ccc2c(c1)N(C[C@@H]1CC[C@H]1C(=O)O)C[C@@]1(CCCc3cc(Cl)ccc31)CO2, amide bond, 16-membered ring, HATU/DIEA, DMF, 6.0 mM, 20.0 °C, 1.0 h”, the ring closure, yield after HPLC worked out at 25%.
As for `CC1(C)OC/C=C/[C@](C)(O)[C@@H]2CC[C@H]2CN2C[C@@]3(CCCc4cc(Cl)ccc43)COc3ccc(cc32)S(=O)(=O)NC1=O`, the ring closure, yield after HPLC (from C=CCOC(C)(C)C(=O)NS(=O)(=O)c1ccc2c(c1)N(C[C@@H]1CC[C@H]1[C@@](C)(O)C=C)C[C@@]1(CCCc3cc(Cl)ccc31)CO2, rcm bond, 16-membered ring, Zhan catalyst, DCE, 1.6 mM, 45.0 °C, 2.0 h) stood at 3.3%.
Turning to `CO[C@@H]1C=CCNC(=O)NS(=O)(=O)c2ccc3c(c2)N(C[C@@H]2CC[C@H]21)C[C@@]1(CCCc2cc(Cl)ccc21)CO3`, for the setting “from C=CCNC(=O)NS(=O)(=O)c1ccc2c(c1)N(C[C@@H]1CC[C@H]1[C@@H](C=C)OC)C[C@@]1(CCCc3cc(Cl)ccc31)CO2, rcm bond, 15-membered ring, Hoveyda-Grubbs II, DCE, 1.0 mM, 80.0 °C, 16.0 h”, the ring closure, yield after HPLC is 7.2% and 31%.
